Experimental data taken from the NIST ThermoML archive (doi:10.1016/j.jct.2008.09.002).

Legend:
[1] = xn = mol fraction of the nth substance listed; settings: 101.3 kPa, Liquid, Vibrating tube method
[2] = molar heat capacity at constant pressure; xn = mol fraction of the nth substance listed; settings: 101.3 kPa, Liquid, Small sample (50 mg) DSC
[3] = excess molar enthalpy (molar enthalpy of mixing); xn = mol fraction of the nth substance listed; settings: 303.15 K, 101.3 kPa, Liquid, Calvet calorimetry

C[N+](=O)[O-] [nitromethane] + CCCCn1cc[n+](C)c1.O=S(=O)([O-])C(F)(F)F
Settings	mass density, [1] [kg/m3]	molar heat capacity at constant pressure, [2] [J/K/mol]
293.15 K, x2 = 0.0495	1173.6	121.1
293.15 K, x2 = 0.0972	1196.4	136
293.15 K, x2 = 0.2021	1229.9	168.8
293.15 K, x2 = 0.2955	1249.1	198.5
293.15 K, x2 = 0.4015	1264.3	231.5
293.15 K, x2 = 0.495	1274.2	261.4
293.15 K, x2 = 0.5993	1282.6	294.6
293.15 K, x2 = 0.6939	1288.6	324.4
293.15 K, x2 = 0.7858	1293.3	353.8
293.15 K, x2 = 0.8697	1296.9	380.5
293.15 K, x2 = 0.9286	1299.1	398.8
298.15 K, x2 = 0.0495	1167.4	121.4
298.15 K, x2 = 0.0972	1190.6	136.4
298.15 K, x2 = 0.2021	1224.7	169.4
298.15 K, x2 = 0.2955	1244.2	199.4
298.15 K, x2 = 0.4015	1259.7	232.6
298.15 K, x2 = 0.495	1269.7	262.6
298.15 K, x2 = 0.5993	1278.2	296.1
298.15 K, x2 = 0.6939	1284.3	326.1
298.15 K, x2 = 0.7858	1289.1	355.6
298.15 K, x2 = 0.8697	1292.8	382.7
298.15 K, x2 = 0.9286	1295.1	400.9
303.15 K, x2 = 0.0495	1161.2	121.8
303.15 K, x2 = 0.0972	1184.8	137
303.15 K, x2 = 0.2021	1219.4	170.1
303.15 K, x2 = 0.2955	1239.3	200.3
303.15 K, x2 = 0.4015	1255	233.9
303.15 K, x2 = 0.495	1265.2	263.9
303.15 K, x2 = 0.5993	1273.9	297.8
303.15 K, x2 = 0.6939	1280.1	327.9
303.15 K, x2 = 0.7858	1285	357.5
303.15 K, x2 = 0.8697	1288.8	385
303.15 K, x2 = 0.9286	1291.1	403.3
308.15 K, x2 = 0.0495	1154.9	122.3
308.15 K, x2 = 0.0972	1178.9	137.5
308.15 K, x2 = 0.2021	1214.2	170.9
308.15 K, x2 = 0.2955	1234.3	201.4
308.15 K, x2 = 0.4015	1250.3	235.2
308.15 K, x2 = 0.495	1260.7	265.3
308.15 K, x2 = 0.5993	1269.6	299.5
308.15 K, x2 = 0.6939	1275.9	329.8
308.15 K, x2 = 0.7858	1280.9	359.6
308.15 K, x2 = 0.8697	1284.7	387.4
308.15 K, x2 = 0.9286	1287.1	405.7
313.15 K, x2 = 0.0495	1148.8	122.8
313.15 K, x2 = 0.0972	1173.2	138.2
313.15 K, x2 = 0.2021	1209	171.7
313.15 K, x2 = 0.2955	1229.5	202.5
313.15 K, x2 = 0.4015	1245.7	236.6
313.15 K, x2 = 0.495	1256.3	266.8
313.15 K, x2 = 0.5993	1265.3	301.3
313.15 K, x2 = 0.6939	1271.7	331.8
313.15 K, x2 = 0.7858	1276.8	361.8
313.15 K, x2 = 0.8697	1280.7	389.9
313.15 K, x2 = 0.9286	1283.1	408.3
318.15 K, x2 = 0.0495	1142.5	123.3
318.15 K, x2 = 0.0972	1167.4	138.7
318.15 K, x2 = 0.2021	1203.7	172.5
318.15 K, x2 = 0.2955	1224.6	203.6
318.15 K, x2 = 0.4015	1241.1	238
318.15 K, x2 = 0.495	1251.8	268.3
318.15 K, x2 = 0.5993	1261	303.2
318.15 K, x2 = 0.6939	1267.5	334
318.15 K, x2 = 0.7858	1272.7	364.1
318.15 K, x2 = 0.8697	1276.7	392.6
318.15 K, x2 = 0.9286	1279.1	411.1

[3]
Settings	excess molar enthalpy [kJ/mol]
x2 = 0.1022	0.039
x2 = 0.1994	0.057
x2 = 0.3029	0.062
x2 = 0.4044	0.059
x2 = 0.5067	0.056
x2 = 0.5931	0.045
x2 = 0.703	0.031
x2 = 0.7814	0.005
x2 = 0.8933	-0.009
